Data from patent US7332495B2 (priority 2002, dated 2008).
Marks after values point to notes of the source that are not given here.

Assays:
[1] = tested on: Kunming mice; assay: Mice writhing model (acetic acid); format: in vivo; conditions: Mus musculus, po; Mice; Acetic acid Writhing; read-out: Analgesia ED50
Method in brief: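 Mixed-sex mice received test compound at 20 mg/Kg i.p.; controls received saline p.o. (20 ml/Kg). Thirty minutes later 0.7% acetic acid (10 mg/kg i.p.) was injected, and writhes were counted over 5 minutes. Inhibition ratio was calculated relative to control.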

[2] = tested on: rat; assay: animal or person; conditions: Rattus norvegicus, po, read-out: Analgesia ED50
Description: Using 55° C. hot plate pain threshold detector (available from Ninghai Baishi Electronic Medical Instrument Co., Zheijiang, China) the threshold change before and after administration of a pharmaceutical composition of the present invention is tested. […] hind paw was scrubbed with alcohol cotton ball before the experiment. The regular pain threshold was tested twice for each rat, the induced hind paw licking time being recorded as the pain threshold. Measurements were made at 20-30 minute intervals. Only rats with stable pain reaction were used in the pharmaceutical test.
(§1) Two species of animals (mice and rats) and four types of pain testing models (i.p. 0.7% acetic acid, s.c. 5% formalin, hot plate 55° C., focused radiant heat) were used.

[3] = tested on: rat; assay: Rat tail flick model (focused radiant heat); format: in vivo; conditions: po, read-out: Analgesia ED50
[4] = tested on: rat; assay: Rat 5% formalin paw s.c.; format: in vivo; conditions: p.o., read-out: Analgesia ED50
Description: as §1

[5] = tested on: Mice; assay: Jumping test in mice (Narcan precipitated); format: in vivo; conditions: Morphine group
Description: Sixty-four mice were divided into 4 groups (16 for each group, ? fifty-fifty) Morphine, IV-12-1 (75 mg/Kg) IV-12-2 (100 mg/Kg) and saline were administrated respectively 3 times per day for 7 days with progressive dose increase. On the 7th day, Narcan is injected (i.p. 2 mg/kg) to precipitate withdrawal. The number of times for the mice to jump was recorded and the incidence of the jump calculated.

[6] = tested on: rats; assay: Spontaneous withdrawal tests (body weight); format: in vivo; conditions: Morphine group
Description: 96 mice were divided into 4 groups (24 for each group, ? fifty-fifty), and Morphine, IV-12-1, IV-12-2, warm boiled water were administered respectively, using progressive dose increase for 7 days (i.g.) and 2 times per day. The weight of the rats after drug withdrawal was compared with the weight one day before drug withdrawal at a corresponding time (See Table 9 and 10).

[7] = tested on: rats; assay: Precipitated withdrawal test in rats; format: in vivo; conditions: Morphine group
Description: 48 rats were divided into 4 groups (12 for each group, ? fifty-fifty). Morphines IV-12-1 (75 mg/Kg), IV-12-2 (100 mg/Kg) and saline, was administered respectively using progressive dose increase for 14 days and 3 times per day. On the 15th day, Narcan is injected (i.p. 4 mg/kg) to precipitate withdrawal. The withdrawal syndrome was observed and the rats wre weighed at 30, 60 and 120 minutes after the injection respectively.

[8] = tested on: Mice; assay: Mice 55° C. hot plate; format: in vivo; conditions: Mus musculus, po, read-out: Analgesia ED50
Description: as §1

[9] = tested on: rats; assay: Spontaneous withdrawal tests (body weight); format: in vivo; conditions: Morphine group; remark: listed apart in the source
[10] = tested on: rats; assay: Conditional position preference in rats; conditions: Morphine group, i.g.
Description: A commercially available device for testing (Med Associates Inc.) was used. Measurements were automatically recorded by a computer.
The data are indicated by means of […], t-test was employed to compare the data in different groups. The rats were divided randomly into groups by weight, 12 for each group. They were positive control groups. […] The experiments were divided into stages of accommodation, training and test. Accommodation: Open the doors between black box and grey box and the door between white box and grey box. put the rats in from the grey box; let them run free in the training box for 15 minutes for 4 days. Training: The white box is with medicine while the black one is without it. The period training is 10 days, the first day with the medicine while the second day not; the third day with the medicine while the fourth day not, so on and so forth. When carrying out the training with medicine, 15 minutes after the rat is administrated (i.g.) with medicine, it is put into the white box for 30 minutes. When the training is without medicine, 15 minutes after the rat is administrated (i.g.) with saline, it is put into the black box for 30 minutes. Test: On the 11th day, the rat is put into the training box, with the door open. The time the rat stays in each box, and the number of time it enters during 15 minutes were determined, and the percentage of the time staying in the white box to the time together in white box and black box is calculated (Table 12).

## CC(=O)Oc1ccccc1C(=O)O [Aspirin, reference compound]
[1]
  ED50: 348 mg/kg
[2]
  ED50: 843 mg/kg
[3]
  ED50: > 5000 mg/kg
[4]
  ED50: 2310 mg/kg

## CN1CC[C@]23c4c5ccc(O)c4O[C@H]2[C@@H](O)C=C[C@H]3[C@H]1C5 [Morphine, reference compound]
[1]
  ED50: 6.8 mg/kg
[2]
  ED50: 107 mg/kg
[5]
  Incidence for jump (%): 87.5* %
[5]; 3 times per day for 7 days, Narcan i.p. 2 mg/kg
  Times for jump (IV ± SD): 68 ± 43
[6]; 114 h after withdrawal
  Increase (%) of weight: −4.7%
[6]; 144 h after withdrawal
  Weight: 282.0 ± 41 g
[6]; ♀, 114 h after withdrawal
  Weight after withdrawal compared with weight one day before withdrawal: 0.97 ± 0.03
[6]; ♂, 18 h after withdrawal
  Weight after withdrawal compared with weight one day before withdrawal: 0.97 ± 0.04
[3]
  ED50: 23.3 mg/kg
[7]; 30 min after Narcan
  Percent of the lost weight (IV ± SD): −5.1 ± 0.7
[7]; 60 min after Narcan
  Percent of the lost weight (IV ± SD): −5.9 ± 1.0
[7]; 120 min after Narcan
  Percent of the lost weight (IV ± SD): −7.0 ± 0.7
[7]; 14 days, Narcan i.p. 4 mg/kg
  Abstinence syndrome (IV ± SD): 9.2 ± 2.8
[8]
  ED50: 7.7 mg/kg
[9]
  Greatest decrease of weight after drug withdrawal: 10%
[9]; 12 h after withdrawal
  Increase (%) of weight: −0.5%
  Weight: 284.7 ± 40 g
[9]; 18 h after withdrawal
  Increase (%) of weight: −3.2%
  Weight: 276.9 ± 39 g
[9]; 24 h after withdrawal
  Increase (%) of weight: −6.4%
  Weight: 267.9 ± 37 g
[9]; 36 h after withdrawal
  Increase (%) of weight: −8.2%
  Weight: 262.7 ± 37 g
[9]; 42 h after withdrawal
  Increase (%) of weight: −9.7%
  Weight: 258.4 ± 35 g
[9]; 48 h after withdrawal
  Increase (%) of weight: −10.2%
  Weight: 257.0 ± 33 g
[9]; 60 h after withdrawal
  Increase (%) of weight: −10.3%
  Weight: 256.6 ± 31 g
[9]; 66 h after withdrawal
  Increase (%) of weight: −10.5%
  Weight: 256.0 ± 34 g
[9]; 72 h after withdrawal
  Increase (%) of weight: −9.0%
  Weight: 260.4 ± 36 g
[9]; 84 h after withdrawal
  Increase (%) of weight: −6.1%
  Weight: 268.7 ± 37 g
[9]; 90 h after withdrawal
  Increase (%) of weight: −7.5%
  Weight: 264.7 ± 37 g
[9]; 96 h after withdrawal
  Increase (%) of weight: −6.0%
  Weight: 269.0 ± 40 g
[9]; 108 h after withdrawal
  Increase (%) of weight: −3.0%
  Weight: 277.6 ± 38 g
[9]; 114 h after withdrawal
  Weight: 272.9 ± 38 g
[9]; 120 h after withdrawal
  Increase (%) of weight: −3.8%
  Weight: 275.4 ± 40 g
[9]; 132 h after withdrawal
  Increase (%) of weight: −0.5%
  Weight: 284.6 ± 38 g
[9]; 138 h after withdrawal
  Increase (%) of weight: −2.4%
  Weight: 279.3 ± 38 g
[9]; 144 h after withdrawal
  Increase (%) of weight: −1.5%
[9]; 156 h after withdrawal
  Increase (%) of weight: 1.7%
  Weight: 291.0 ± 40 g
[9]; 162 h after withdrawal
  Increase (%) of weight: −0.6%
  Weight: 284.2 ± 40 g
[9]; 168 h after withdrawal
  Increase (%) of weight: 0.1%
  Weight: 286.5 ± 42 g
[9]; before withdraw
  Weight: 286.2 ± 40 g
[9]; ♀, 18 h after withdrawal
  Weight after withdrawal compared with weight one day before withdrawal: 0.98 ± 0.03
[9]; ♀, 42 h after withdrawal
  Weight after withdrawal compared with weight one day before withdrawal: 0.92 ± 0.02
[9]; ♀, 66 h after withdrawal
  Weight after withdrawal compared with weight one day before withdrawal: 0.91 ± 0.02
[9]; ♀, 90 h after withdrawal
  Weight after withdrawal compared with weight one day before withdrawal: 0.94 ± 0.02
[9]; ♀, 138 h after withdrawal
  Weight after withdrawal compared with weight one day before withdrawal: 1.00 ± 0.03
[9]; ♀, 162 h after withdrawal
  Weight after withdrawal compared with weight one day before withdrawal: 1.01 ± 0.03
[9]; ♂, 42 h after withdrawal
  Weight after withdrawal compared with weight one day before withdrawal: 0.91 ± 0.03
[9]; ♂, 66 h after withdrawal
  Weight after withdrawal compared with weight one day before withdrawal: 0.90 ± 0.03
[9]; ♂, 90 h after withdrawal
  Weight after withdrawal compared with weight one day before withdrawal: 0.94 ± 0.03
[9]; ♂, 114 h after withdrawal
  Weight after withdrawal compared with weight one day before withdrawal: 0.97 ± 0.03
[9]; ♂, 138 h after withdrawal
  Weight after withdrawal compared with weight one day before withdrawal: 0.99 ± 0.04
[9]; ♂, 162 h after withdrawal
  Weight after withdrawal compared with weight one day before withdrawal: 1.01 ± 0.04
[10]
  Percent in the medicine box (%): 62.0 ± 8.0 %
